# Values of other authors in patent US9707273B2, “Peptides for use in the topical treatment of retinal neurodegenerative diseases, in particular in early stages of diabetic retinopathy and other retinal diseases in which neurodegeneration plays an essential role” (FUNDACIÓ HOSPITAL UNIVERSITARI VALL D'HEBRON—INSTITUT DE …, priority 2013, dated 2017).
# Details: administered in the form of eye drops; Aiello et al. 2008
smiles,measurement,value
"Cc1cc(-c2cc(O)ccc2Cl)cc2nnc(Nc3ccc(OCCN4CCCC4)cc3)nc12 [TG100572, 4-chloro-3-(5-methyl-3-{[4-(2-pyrrolidin-I-ylethoxy)phenyl]amino}-1,2,4-benzotriazin-7-yl)phenol]",reaching the target in the retina after eye drops,able to reach the target in the retina
